Experimental findings from patent US20040175691A1, “Use of the KCNQ2 and KCNQ3 genes for the discovery of agents useful in the treatment of neurological disorders” (priority 1998, published 2004) are described below.

What all share (settings): mean±s.e.m.
One assay addresses T1, KCNQ2 + KCNQ3 (UniProt O43526+O88944, DEL417-446).
T1 construct: Full-length KCNQ2 cDNAs were amplified from adult human brain cDNA; Multiple full-length cDNA clones were amplified in independent PCR reactions from rat SCG cDNA; expressed in transfected cells; host or cells: Xenopus oocytes injected with cRNA
Kind of assay: Blockade of KCNQ2+KCNQ3 channels expressed in Xenopus oocytes. In kind it is cell-based, human KCNQ2, rat KCNQ3. The method, then: Method: Full-length KCNQ2 cDNAs were amplified from adult human brain cDNA using the following primers ([…], […]) with the Expand Fidelity enzyme mixture (Boehringer Mannheim, Indianapolis). […] This region is also alternatively spliced in the KCNQ2 cDNA clone described by Biervert et al. (1998). Preparation, injection of cRNA and recording from oocytes was performed at room temperature as described previously (Dixon et al. 1996). The standard extracellular recording solution contained: 82 mM NaCl, 2 mM KCl, 1.8 mM CaCl2, 1 mM MgCl2, and 5 mM Na-HEPES (pH 7.6). Data collection and analysis were performed using pClamp software (Axon Instruments, Foster City, Calif.).
Holding potential was −60 mV and the cell was repetitively depolarized to −30 mV for 1 minute to reach steady-state blockade. Tail currents were recorded at −50 mV.
IC50 values are all expressed in μM, mean±s.e.m. In cases where the IC50 values were greater than 100 μM the exact value is not reported due to limited solubility in the drug.

For the next assay, the target named is T2, erg1 (Rattus norvegicus, UniProt O08962).
T2 construct: expressed in transfected cells; host or cells: oocytes (Xenopus)
T2 sequence (O08962 1-1163): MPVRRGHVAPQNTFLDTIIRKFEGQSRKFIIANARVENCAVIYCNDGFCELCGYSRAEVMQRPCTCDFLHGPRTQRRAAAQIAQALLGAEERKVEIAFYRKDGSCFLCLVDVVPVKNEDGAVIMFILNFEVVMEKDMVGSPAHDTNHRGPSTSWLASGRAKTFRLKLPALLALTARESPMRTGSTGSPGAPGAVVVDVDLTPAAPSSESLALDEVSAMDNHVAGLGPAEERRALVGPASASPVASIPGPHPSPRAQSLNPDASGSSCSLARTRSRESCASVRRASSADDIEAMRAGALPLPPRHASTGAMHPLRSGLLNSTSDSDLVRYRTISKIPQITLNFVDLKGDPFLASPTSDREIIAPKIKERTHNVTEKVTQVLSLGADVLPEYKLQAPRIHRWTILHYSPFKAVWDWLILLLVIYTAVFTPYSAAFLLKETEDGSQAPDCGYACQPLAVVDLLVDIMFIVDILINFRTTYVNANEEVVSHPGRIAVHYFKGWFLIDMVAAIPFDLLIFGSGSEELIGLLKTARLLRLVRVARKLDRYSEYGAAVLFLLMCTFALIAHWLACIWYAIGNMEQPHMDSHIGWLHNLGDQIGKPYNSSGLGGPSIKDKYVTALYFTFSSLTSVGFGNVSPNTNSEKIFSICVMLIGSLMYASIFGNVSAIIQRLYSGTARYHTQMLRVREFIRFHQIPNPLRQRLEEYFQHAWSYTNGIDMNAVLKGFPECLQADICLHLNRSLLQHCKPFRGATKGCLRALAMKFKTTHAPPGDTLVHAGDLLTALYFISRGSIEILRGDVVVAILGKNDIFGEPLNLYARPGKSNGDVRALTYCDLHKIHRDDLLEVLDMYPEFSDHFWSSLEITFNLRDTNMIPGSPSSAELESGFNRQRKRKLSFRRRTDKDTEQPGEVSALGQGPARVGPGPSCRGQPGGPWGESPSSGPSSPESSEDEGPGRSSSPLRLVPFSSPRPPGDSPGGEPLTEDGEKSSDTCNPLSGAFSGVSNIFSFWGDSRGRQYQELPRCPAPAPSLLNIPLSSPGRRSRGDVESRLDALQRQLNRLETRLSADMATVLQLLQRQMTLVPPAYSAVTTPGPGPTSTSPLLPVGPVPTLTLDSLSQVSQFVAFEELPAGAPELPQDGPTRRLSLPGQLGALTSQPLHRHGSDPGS
Kind of assay: Blockade of cloned erg1 channel in oocytes. The assay is classed as cell-based.

Another assay deals with T3, erg3 (Rattus norvegicus, UniProt O54852).
T3 construct: expressed in transfected cells; host or cells: oocytes (Xenopus)
T3 sequence (O54852 1-1195): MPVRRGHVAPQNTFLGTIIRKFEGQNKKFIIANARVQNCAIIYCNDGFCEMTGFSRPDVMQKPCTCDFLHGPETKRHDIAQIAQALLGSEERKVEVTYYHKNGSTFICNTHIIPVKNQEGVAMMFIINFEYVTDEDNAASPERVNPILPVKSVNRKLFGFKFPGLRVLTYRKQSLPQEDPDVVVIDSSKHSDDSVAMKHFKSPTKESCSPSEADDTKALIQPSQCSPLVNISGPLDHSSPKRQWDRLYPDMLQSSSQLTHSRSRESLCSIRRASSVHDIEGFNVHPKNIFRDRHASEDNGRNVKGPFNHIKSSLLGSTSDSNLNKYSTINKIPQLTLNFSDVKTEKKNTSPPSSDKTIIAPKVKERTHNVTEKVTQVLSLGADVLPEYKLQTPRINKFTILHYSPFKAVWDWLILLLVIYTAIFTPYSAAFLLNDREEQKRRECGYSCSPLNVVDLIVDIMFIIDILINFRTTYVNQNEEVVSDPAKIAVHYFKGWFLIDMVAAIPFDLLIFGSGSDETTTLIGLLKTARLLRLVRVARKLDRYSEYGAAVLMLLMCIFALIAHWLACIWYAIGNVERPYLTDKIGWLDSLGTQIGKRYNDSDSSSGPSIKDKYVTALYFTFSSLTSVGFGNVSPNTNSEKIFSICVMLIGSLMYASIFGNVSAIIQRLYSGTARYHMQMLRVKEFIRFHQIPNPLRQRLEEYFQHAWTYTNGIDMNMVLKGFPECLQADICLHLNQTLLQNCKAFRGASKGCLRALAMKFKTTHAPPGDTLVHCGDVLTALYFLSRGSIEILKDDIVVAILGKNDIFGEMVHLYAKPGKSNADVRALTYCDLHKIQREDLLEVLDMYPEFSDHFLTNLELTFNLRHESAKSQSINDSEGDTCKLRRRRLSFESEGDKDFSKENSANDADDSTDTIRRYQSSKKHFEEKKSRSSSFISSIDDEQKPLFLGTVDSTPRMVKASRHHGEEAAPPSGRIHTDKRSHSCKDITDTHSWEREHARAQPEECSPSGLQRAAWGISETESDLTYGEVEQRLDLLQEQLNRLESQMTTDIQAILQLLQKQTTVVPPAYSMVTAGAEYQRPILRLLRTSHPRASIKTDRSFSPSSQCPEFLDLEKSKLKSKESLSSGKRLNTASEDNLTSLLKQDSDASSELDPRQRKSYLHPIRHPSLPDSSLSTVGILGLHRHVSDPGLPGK
Put plainly: Blockade of cloned erg3 channel in oocytes. The assay is classed as cell-based.

The next assay concerns the target T4, Kv1.2 (Homo sapiens, UniProt P16389).
T4 construct: expressed in transfected cells; host or cells: oocytes (Xenopus)
Kind of assay: Blockade of cloned Kv1.2 channel in oocytes. The assay is classed as cell-based.

T4 sequence (P16389 whole entry): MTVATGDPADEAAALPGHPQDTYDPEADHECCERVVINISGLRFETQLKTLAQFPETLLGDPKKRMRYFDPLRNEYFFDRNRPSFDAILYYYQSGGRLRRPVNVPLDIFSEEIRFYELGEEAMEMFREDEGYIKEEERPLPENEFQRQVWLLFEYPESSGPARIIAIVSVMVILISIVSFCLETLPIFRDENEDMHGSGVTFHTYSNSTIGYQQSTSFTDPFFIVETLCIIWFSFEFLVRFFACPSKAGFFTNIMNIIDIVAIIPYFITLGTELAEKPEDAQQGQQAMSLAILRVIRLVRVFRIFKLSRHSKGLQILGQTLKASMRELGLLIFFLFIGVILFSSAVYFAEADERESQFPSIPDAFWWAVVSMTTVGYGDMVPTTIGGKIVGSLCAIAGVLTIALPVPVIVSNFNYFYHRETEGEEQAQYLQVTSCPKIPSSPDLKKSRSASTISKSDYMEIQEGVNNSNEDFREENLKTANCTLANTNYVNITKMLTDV

With `O=C1N(c2ccccc2)c2ccccc2C1(Cc1ccncc1)Cc1ccncc1` [Linopirdine, 3,3-bis(4-pyridinylmethyl)-1-phenylindolin-2-one], the IC50 (usually the concentration needed to halve the response being measured) on KCNQ2 + KCNQ3 was found to be 4 ± 0.5 µM; against erg1, 53 ± 4 µM; against erg3, 85 ± 5 µM; on Kv1.2, 68 ± 6 µM.
Regarding `O=C1c2ccccc2C(Cc2ccncc2)(Cc2ccncc2)c2ccccc21` [XE991, 10,10-bis(4-pyridinylmethyl)-9(10H)-anthracenone], the IC50 was 0.6 ± 0.1 µM at KCNQ2 + KCNQ3, greater than 100 µM on erg1, greater than 100 µM at erg3 and greater than 100 µM against Kv1.2.
